Assay results as given in article PMC9696494, “Garcixanthone E and Garcimangophenone C: New Metabolites from Garcinia mangostana and Their Cytotoxic and Alpha Amylase Inhibitory Potential” (Life, 2022).

Target: T1, α-amylase
T1 construct: gene AMY2A
Assay: EnzChek Ultra Amylase assay kit, enzyme inhibition
Format: biochemical

Structure (SMILES)	IC50 [µM]
COc1cc2oc3cc(O)c(/C=C/C(C)(C)O)c(O)c3c(=O)c2c(CC=C(C)C)c1OC [compound 1, 1,3-dihyroxy-6,7-dimethoxy-2-(3-hydroxy-3-methylbut-1-enyl)-8-(3-methylbut-2-enyl)-xanthone]	17.8
C[C@@H]1O[C@@H](Oc2cc(O)cc(O)c2C(=O)c2cccc(O)c2)[C@H](O)[C@H](O)[C@H]1O [compound 9, garcimangophenone C]	12.9
